Where two headings read alike, the source gives them in different places.
Tests used:
[1] = system: Phakopsora pachyrhizi (the causal agent of Asian soybean rust); experiment: Test A: preventive spray on soybean seedlings, Asian soybean rust, visual disease rating; type: in vivo; details: for pest or weed control at 10 µg/mL: read-out: Test A disease control rating
Source text: (§1) General protocol for preparing test suspensions for Tests A-D: the test compounds were first dissolved in acetone in an amount equal to 3% of the final volume and then suspended at the desired concentration (in ppm) in acetone and purified water (50/50 mix by volume) containing 250 ppm of the surfactant PEG400 (polyhydric alcohol esters). The resulting test suspensions were then used in Tests A-D.
The test suspension was sprayed to the point of run-off on soybean seedlings. The following day the seedlings were inoculated with a spore suspension of Phakopsora pachyrhizi (the causal agent of Asian soybean rust) and incubated in a saturated atmosphere at 22° C. for 24 h and then moved to a growth chamber at 22° C. for 8 days, after which time visual disease ratings were made.
(§2) The test results for Tests A-C presented in Table A below for compounds of Formula 1 illustrate the fungicidal activity of component (a) contributing to the plant disease control utility of compositions comprising component (a) in combination with component (b) according to the present invention. In the Table, a rating of 100 indicates 100% disease control and a rating of 0 indicates no disease control (relative to the controls). A dash (-) indicates the compound was not tested. The test suspensions were sprayed at the concentration listed in the column “Rate in ppm”, unless otherwise indicated. An asterisk “*” next to the rating indicates a 250 ppm test suspension was used, a double asterisk “**” next to the rating indicates a 100 ppm test suspension was used, and a triple asterisk “***” next to the rating indicates a 50 ppm test suspension was used.

[2] = system: Puccinia recondita f. sp. tritici (the causal agent of wheat leaf rust); experiment: Test C: preventive spray on wheat seedlings, wheat leaf rust, visual disease rating; type: in vivo; details: for pest or weed control at 10 µg/mL: read-out: Test C disease control rating
Source text: as §1
The test suspension was sprayed to the point of run-off on wheat seedlings. The following day the seedlings were inoculated with a spore suspension of Puccinia recondita f. sp. tritici; (the causal agent of wheat leaf rust) and incubated in a saturated atmosphere at 20° C. for 24 h, and then moved to a growth chamber at 20° C. for 6 days, after which time visual disease ratings were made.
as §2

[3] = Phakopsora pachyrhizi, 216 h, test suspension 10 ppm, soybean seedlings, 100 = 100% disease control, 0 = no control
[4] = Puccinia recondita, 168 h, test suspension 10 ppm, wheat seedlings
[5] = test suspension 10 ppm, soybean seedlings, 100 = 100% disease control, 0 = no control
[6] = test suspension 10 ppm, wheat seedlings
[7] = test suspension 50 ppm, soybean seedlings
[8] = test suspension 50 ppm, wheat seedlings

## O=c1ccc(Cl)nn1Cc1ccc(-c2noc(C(F)(F)F)n2)cc1 [Compound 4, 6-chloro-2-[[4-[5-(trifluoromethyl)-1,2,4-oxadiazol-3-yl]phenyl]methyl]-3(2H)-pyridazinone]
[1]; Phakopsora pachyrhizi, 216 h, test suspension 50 ppm, soybean seedlings
  pest or weed control at 50 µg/mL: 100%
[2]; Puccinia recondita, 168 h, test suspension 50 ppm, wheat seedlings
  pest or weed control at 50 µg/mL: 100%

## COC(=O)c1ccn(Cc2ccc(-c3noc(C(F)(F)F)n3)cc2)c(=O)c1 [Compound 24, methyl 1,2-dihydro-2-oxo-1-[[4-[5-(trifluoromethyl)-1,2,4-oxadiazol-3-yl]phenyl]methyl]-4-pyridinecarboxylate]
[1]; [3]
  pest or weed control at 10 µg/mL: 100%
[2]; [4]
  pest or weed control at 10 µg/mL: 95%

## COC(=O)c1cccc2nn(Cc3ccc(-c4noc(C(F)(F)F)n4)cc3)cc12 [Compound 36, methyl 2-[[4-[5-(trifluoromethyl)-1,2,4-oxadiazol-3-yl]phenyl]methyl]-2H-indazole-4-carboxylate]
[1]; [3]
  pest or weed control at 10 µg/mL: 100%
[2]; [4]
  pest or weed control at 10 µg/mL: 100%

## COC(=O)c1cccc2c1cnn2Cc1ccc(-c2noc(C(F)(F)F)n2)cc1 [Compound 49, methyl 1-[[4-[5-(trifluoromethyl)-1,2,4-oxadiazol-3-yl]phenyl]methyl]-1H-indazole-4-carboxylate]
[1]; [3]
  pest or weed control at 10 µg/mL: 100%
[2]; [4]
  pest or weed control at 10 µg/mL: 100%

## COC(=O)C1COC(Cc2ccc(-c3noc(C(F)(F)F)n3)cc2)=N1 (centres unmarked) [Compound 74, methyl 4,5-dihydro-2-[[4-[5-(trifluoromethyl)-1,2,4-oxadiazol-3-yl]phenyl]methyl]-4-oxazolecarboxylate]
[1]; [3]
  pest or weed control at 10 µg/mL: 99%
[2]; [4]
  pest or weed control at 10 µg/mL: 51%

## NC(=O)C1COC(Cc2ccc(-c3noc(C(F)(F)F)n3)cc2)=N1 (centres unmarked) [Compound 75, 4,5-dihydro-2-[[4-[5-(trifluoromethyl)-1,2,4-oxadiazol-3-yl]phenyl]methyl]-4-oxazolecarboxamide]
[1]; [3]
  pest or weed control at 10 µg/mL: 100%
[2]; [4]
  pest or weed control at 10 µg/mL: 68%

## CCOC(=O)c1cc(C)n(Cc2ccc(-c3noc(C(F)(F)F)n3)cc2)n1 [Compound 110, ethyl 5-methyl-1-[[4-[5-(trifluoromethyl)-1,2,4-oxadiazol-3-yl]phenyl]methyl]-1H-pyrazole-3-carboxylate]
[1]; [3]
  pest or weed control at 10 µg/mL: 100%
[2]; [4]
  pest or weed control at 10 µg/mL: 91%

## FC(F)(F)c1nc(-c2ccc(Cn3ccc4ncccc43)cc2)no1 [Compound 136, 1-[[4-[5-(trifluoromethyl)-1,2,4-oxadiazol-3-yl]phenyl]methyl]-1H-pyrrolo[3,2-b]pyridine]
[1]; [3]
  pest or weed control at 10 µg/mL: 100%
[2]; [4]
  pest or weed control at 10 µg/mL: 68%

## FC(F)(F)c1nc(-c2ccc(Cn3ncc4cccnc43)cc2)no1 [Compound 147, 1-[[4-[5-(trifluoromethyl)-1,2,4-oxadiazol-3-yl]phenyl]methyl]-1H-pyrazolo[3,4-b]pyridine]
[1]; [3]
  pest or weed control at 10 µg/mL: 100%
[2]; [4]
  pest or weed control at 10 µg/mL: 100%

## CN(C)C(=O)C1COC(Cc2ccc(-c3noc(C(F)(F)F)n3)cc2)=N1 (centres unmarked) [Compound 178, 4,5-dihydro-N,N-dimethyl-2-[[4-[5-(trifluoromethyl)-1,2,4-oxadiazol-3-yl]phenyl]methyl]-4-oxazolecarboxamide]
[1]; [3]
  pest or weed control at 10 µg/mL: 96%
[2]; [4]
  pest or weed control at 10 µg/mL: 68%

## COCCNC(=O)c1cc(C)n(Cc2ccc(-c3noc(C(F)(F)F)n3)cc2)n1 [Compound 183, N-(2-methoxyethyl)-5-methyl-1-[[4-[5-(trifluoromethyl)-1,2,4-oxadiazol-3-yl]phenyl]methyl]-1H-pyrazole-3-carboxamide]
[1]; [3]
  pest or weed control at 10 µg/mL: 100%
[2]; [4]
  pest or weed control at 10 µg/mL: 100%

## O=C(NCCCl)c1coc(Cc2ccc(-c3noc(C(F)(F)F)n3)cc2)n1 [Compound 204, N-(2-chloroethyl)-2-[[4-[5-(trifluoromethyl)-1,2,4-oxadiazol-3-yl]phenyl]methyl]-4-oxazolecarboxamide]
[1]; Phakopsora pachyrhizi, 216 h
  pest or weed control at 10 µg/mL: 100%
[2]; Puccinia recondita, 168 h
  pest or weed control at 10 µg/mL: 100%

## COC(=O)c1ccc2nn(Cc3ccc(-c4noc(C(F)(F)F)n4)cc3)nc2c1 [compound 23]
[1]; [5]
  Test A disease control rating: 100%
[2]; [6]
  Test C disease control rating: 100%

## COc1cc(=O)n(Cc2ccc(-c3noc(C(F)(F)F)n3)cc2)nc1Cl [compound 27]
[1]; [7]
  Test A disease control rating: 100%
[2]; [8]
  Test C disease control rating: 100%

## COc1cnn(Cc2ccc(-c3noc(C(F)(F)F)n3)cc2)c(=O)c1 [compound 28]
[1]; [7]
  Test A disease control rating: 100%
[2]; [8]
  Test C disease control rating: 100%

## O=[N+]([O-])c1ccc2c(c1)c(Br)nn2Cc1ccc(-c2noc(C(F)(F)F)n2)cc1 [compound 30]
[1]; [5]
  Test A disease control rating: 25%
[2]; [6]
  Test C disease control rating: 0%

## CSc1nn(Cc2ccc(-c3noc(C(F)(F)F)n3)cc2)nc1C [compound 31]
[1]; [5]
  Test A disease control rating: 100%
[2]; [6]
  Test C disease control rating: 100%

## Cc1cc2c(cnn2Cc2ccc(-c3noc(C(F)(F)F)n3)cc2)cc1Br [compound 32]
[1]; [5]
  Test A disease control rating: 96%
[2]; [6]
  Test C disease control rating: 68%

## Cc1cc2nn(Cc3ccc(-c4noc(C(F)(F)F)n4)cc3)cc2cc1Br [compound 33]
[1]; [5]
  Test A disease control rating: 100%
[2]; [6]
  Test C disease control rating: 68%

## Cc1nn(Cc2ccc(-c3noc(C(F)(F)F)n3)cc2)c2cccc(Br)c12 [compound 34]
[1]; [5]
  Test A disease control rating: 71%
[2]; [6]
  Test C disease control rating: 55%

## COC(=O)c1ccc2nn(Cc3ccc(-c4noc(C(F)(F)F)n4)cc3)cc2c1 [compound 35]
[1]; [5]
  Test A disease control rating: 100%
[2]; [6]
  Test C disease control rating: 98%

## Cc1c2c(Br)cccc2nn1Cc1ccc(-c2noc(C(F)(F)F)n2)cc1 [compound 37]
[1]; [5]
  Test A disease control rating: 99%
[2]; [6]
  Test C disease control rating: 86%

## FC(F)(F)c1nc(-c2ccc(Cn3cc4c(I)cc(Cl)cc4n3)cc2)no1 [compound 38]
[1]; [5]
  Test A disease control rating: 78%
[2]; [6]
  Test C disease control rating: 68%

## FC(F)(F)c1nc(-c2ccc(Cn3ncc4c(I)cc(Cl)cc43)cc2)no1 [compound 39]
[1]; [5]
  Test A disease control rating: 44%
[2]; [6]
  Test C disease control rating: 28%

## CSc1nnn(Cc2ccc(-c3noc(C(F)(F)F)n3)cc2)c1C [compound 40]
[1]; [5]
  Test A disease control rating: 100%
[2]; [6]
  Test C disease control rating: 92%

## COC(=O)c1ccc2cnn(Cc3ccc(-c4noc(C(F)(F)F)n4)cc3)c2c1 [compound 41]
[1]; [5]
  Test A disease control rating: 100%
[2]; [6]
  Test C disease control rating: 98%

## COC(=O)c1ccc2cn(Cc3ccc(-c4noc(C(F)(F)F)n4)cc3)nc2c1 [compound 42]
[1]; [5]
  Test A disease control rating: 100%
[2]; [6]
  Test C disease control rating: 92%

## CON(C)C(=O)c1nn(Cc2ccc(-c3noc(C(F)(F)F)n3)cc2)c2ccccc12 [compound 43]
[1]; [5]
  Test A disease control rating: 100%
[2]; [6]
  Test C disease control rating: 96%

## N#CCNC(=O)c1nn(Cc2ccc(-c3noc(C(F)(F)F)n3)cc2)c2ccccc12 [compound 44]
[1]; [5]
  Test A disease control rating: 100%
[2]; [6]
  Test C disease control rating: 95%

## CNC(=O)c1nn(Cc2ccc(-c3noc(C(F)(F)F)n3)cc2)c2ccccc12 [compound 45]
[1]; [5]
  Test A disease control rating: 100%
[2]; [6]
  Test C disease control rating: 99%

## COCCNC(=O)c1nn(Cc2ccc(-c3noc(C(F)(F)F)n3)cc2)c2ccccc12 [compound 46]
[1]; [5]
  Test A disease control rating: 100%
[2]; [6]
  Test C disease control rating: 100%

## COC(=O)c1cccc2cnn(Cc3ccc(-c4noc(C(F)(F)F)n4)cc3)c12 [compound 47]
[1]; [5]
  Test A disease control rating: 100%
[2]; [6]
  Test C disease control rating: 74%

## COC(=O)c1ccc2c(cnn2Cc2ccc(-c3noc(C(F)(F)F)n3)cc2)c1 [compound 48]
[1]; [5]
  Test A disease control rating: 100%
[2]; [6]
  Test C disease control rating: 89%

## COC(=O)c1cccc2cn(Cc3ccc(-c4noc(C(F)(F)F)n4)cc3)nc12 [compound 50]
[1]; [5]
  Test A disease control rating: 13%
[2]; [6]
  Test C disease control rating: 28%

From patent US20240090503A1, “FUNGICIDAL OXADIAZOLES AND THEIR MIXTURES” (FMC CORPORATION, priority 2020, published 2024)
